Numbered stars: 1 amine (or outer) side, 2 acyl side, 3 side chain; on linkers, the order of the positions; unused ones are H or OH. Side chains are listed from the residue outwards. Ends that are not written are not given here. Peptide text beside a SMILES is read from it. * marks the point of attachment. γGlu = O=C(O)[C@H](CCC(=O)[*:2])N[*:1]; Stearoyl = CCCCCCCCCCCCCCCCCC(=O)*; AEEA = NCCOCCOCC(=O)O
Legend:
[1] = target: human NPFF2R (Homo sapiens, UniProt Q9Y5X5); assay: NPFF2R functional activity assay (cAMP, HTRF); format: cell-based; conditions: CHO-K1 cells stably expressing human NPFF2R, 1500 cells/well; HTRF cAMP (CisBio); 3 µM forskolin (~90% activity level); 30 min; DPBS, 0.5 mM IBMX, 0.05% casein; 11 concentrations
Sequence of human NPFF2R (Q9Y5X5 whole entry): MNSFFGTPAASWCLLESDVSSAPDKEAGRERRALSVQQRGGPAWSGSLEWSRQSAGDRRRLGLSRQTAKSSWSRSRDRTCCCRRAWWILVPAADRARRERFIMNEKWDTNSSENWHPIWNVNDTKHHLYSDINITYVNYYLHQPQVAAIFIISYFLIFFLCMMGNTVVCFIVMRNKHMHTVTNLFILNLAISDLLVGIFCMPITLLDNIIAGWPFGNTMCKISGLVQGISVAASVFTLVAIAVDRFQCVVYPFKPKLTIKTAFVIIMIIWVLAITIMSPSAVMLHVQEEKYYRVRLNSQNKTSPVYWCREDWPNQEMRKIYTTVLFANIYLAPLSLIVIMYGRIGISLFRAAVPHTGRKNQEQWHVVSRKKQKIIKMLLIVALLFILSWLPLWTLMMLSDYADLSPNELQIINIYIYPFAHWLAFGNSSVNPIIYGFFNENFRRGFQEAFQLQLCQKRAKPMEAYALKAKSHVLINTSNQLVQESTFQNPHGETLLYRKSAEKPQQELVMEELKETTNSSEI
Procedure: Figure 3 GPR10 and NPFF2R profiling of in vivo metabolites of GUB03385. […] (b) cAMP measurements in human NPFF2R CHO-K cells (HTRF technology, CisBio) at a fixed concentration of 3 µM forskolin after 30 min. incubation at room temperature with metabolites and the native peptide NPSF. Representative curves of three determinations.
The Homogenous Time Resolved Fluorescence (HTRF) technology optimized for Gq coupled receptors has thoroughly been described in the CisBio IP1 kit manual (#62IPAPEC) and in the cAMP assay kit manual for Gi coupled receptors (#62AM9PEC). Briefly, this technic is based on a competitive immunoassay using cryptate-labelled anti-cAMP or anti-IP1 antibodies and d2-labeled cAMP or IP1. In the absence of cellular cAMP or IP1, the anti-cryptate conjugate may get into proximity to the d2 conjugate and energy (FRET) can be transferred from cryptate to d2. Chem-1 cells stably expressing the human prolactin releasing peptide receptor (GPR10, Eurofins, # HTS057C) and irradiated CHO-K1 cells stably expressing the human NPFF2R (PerkinElmer, #ES-490-CF) were applied as cells in suspension, brought to life from frozen cell stocks immediately before assay performance. 384-Well (Corning, #4513) assay formats with a total assay volume of 20 µl were applied. GPR10 cells (10.000 cells/well) were incubated with agonist peptides and the NPFF2R cells (1500 cells/well) were incubated with agonist peptides and forskolin (~ 90% activity level) for 30 min at 37 °C using IP1 kit stimulation buffer and DPBS (Sigma, #D8537) containing 0.5 mM IBMX (Sigma, # I5879), receptively. Both stimulation buffers were supplemented with 0.05% casein (Sigma, # C4765-10 ml). After addition of HTRF® detection reagents and incubation with shaking (2400 rpm) for one hour at room temperature signals at 620 and 665 nm (raw counts: ratio of 665/620) were detected at a ClarioStar plate reader (BMG Labtech, Ortenberg, Germany). Concentration–response evaluation of compounds was performed with 11 concentrations of agonist peptides (covering 3 decades) and EC50 values were calculated by nonlinear regression using sigmoid concentration–response with variable slope. Data were analysed using GraphPad v9.1 software (GraphPad, La Jolla, CA).

[2] = target: T1, human prolactin releasing peptide receptor (GPR10) (Homo sapiens, UniProt P49683); assay: GPR10 functional activity assay (IP1, HTRF); format: cell-based; conditions: Chem-1 cells stably expressing human GPR10, 10.000 cells/well; HTRF IP1 (CisBio); 30 min at 37 °C; IP1 stimulation buffer with 0.05% casein; 11 concentrations
T1 sequence (P49683 1-370): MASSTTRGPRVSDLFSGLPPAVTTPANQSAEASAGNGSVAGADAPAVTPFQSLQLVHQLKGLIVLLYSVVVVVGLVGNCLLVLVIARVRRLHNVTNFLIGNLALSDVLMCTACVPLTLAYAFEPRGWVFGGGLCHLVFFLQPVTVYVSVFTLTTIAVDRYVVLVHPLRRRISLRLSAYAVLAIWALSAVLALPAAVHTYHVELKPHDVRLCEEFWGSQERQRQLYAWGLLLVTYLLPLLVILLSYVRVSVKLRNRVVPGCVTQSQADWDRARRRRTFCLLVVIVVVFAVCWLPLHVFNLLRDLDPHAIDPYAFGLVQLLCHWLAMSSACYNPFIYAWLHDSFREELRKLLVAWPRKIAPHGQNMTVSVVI

[3] = In vivo plasma metabolite identification (MetID) of GUB03385; parameters: species or system DIO mice; conditions: UPLC-Orbitrap MS; for %AUC 60 min: metabolite of GUB03385 in plasma of DIO mice 60 min after GUB03385 1250 nmol/kg SC; for %AUC 120 min: metabolite of GUB03385 in plasma of DIO mice 120 min after GUB03385 1250 nmol/kg SC; for %AUC 30 min: metabolite of GUB03385 in plasma of DIO mice 30 min after GUB03385 1250 nmol/kg SC
Procedure: Cardiac blood samples from DIO mice dosed with GUB03385 (1250 nmol/kg, SC, n = 10) were collected after 5, 10, 30, 60 and 120 min. Anaesthesia was performed using 2–4% isoflurane/O2 (Attane Vet., ScanVet Animal Health, Fredensborg, Denmark) inhalation. Blood samples were centrifuged (3000 g, 10 min) and plasma supernatants were stored at − 80 °C until MS analysis which was performed by Admescope Ltd (Oulu, Finland). Plasma precipitation was performed with twofold volume of cold acetonitrile containing 1% of formic acid. After centrifugation ([…], 10 min), supernatant was pipetted to 96-well plate and analysed using a Waters Acquity UPLC coupled to a Thermo Q-Exactive Focus Orbitrap MS. Peptides were separated on a Waters CSH C18 (2.1 × 50 mm, […]) column with a linear gradient from 2 to 40% acetonitrile over 3.5 min at a flowrate of 0.5 mL/min. Mass spectra were acquired in positive ionization mode in the mass range 133–2000 m/z with a resolution of 35,000; MS/MS data were acquired at a resolution of 17,500 in AIF mode with a normalized collision energy of 57. Data analysis and profiling of metabolites was performed by Admescope using Thermo XCalibur 4.1.31.9.

Row | %AUC 60 min [3] [%] | %AUC 120 min [3] [%] | %AUC 30 min [3] [%] | Molecule | also measured
1 | – | – | – | TPDINPAWYASRGIRPVGRF-NH2 [PrRP20] | EC50 [1]: > 5000 nM; EC50 [2]: 0.2 nM
2 | – | – | – | CC(C)C[C@H](NC(=O)[C@H](Cc1ccccc1)NC(=O)[C@H](C)NC(=O)[C@H](CCC(N)=O)NC(=O)[C@@H](N)CO)C(=O)N[C@@H](Cc1ccccc1)C(=O)N[C@@H](CCC(N)=O)C(=O)N1CCC[C@H]1C(=O)N[C@@H](CCC(N)=O)C(=O)N[C@@H](CCCNC(=N)N)C(=O)N[C@@H](Cc1ccccc1)C(N)=O [NPSF, neuropeptide SF] | EC50 [1]: 5.6 nM; EC50 [2]: > 5000 nM
3 | 5 | 11 | – | CCCCCCCCCCCCCCCCCC(=O)N[C@@H](CCC(=O)NCCOCCOCC(=O)NCCOCCOCC(=O)NCCCC[C@H](N)C(=O)N[C@@H](CCCNC(=N)N)C(=O)N1CCC[C@H]1C(=O)N[C@H](C(=O)O)C(C)C)C(=O)O [GUB08254] (H-K([AEEA-AEEA-γGlu-Stearoyl])RPV-OH; C-terminus assumed) | –
4 | 23 | 14 | 48 | CCCCCCCCCCCCCCCCCC(=O)N[C@@H](CCC(=O)NCCOCCOCC(=O)NCCOCCOCC(=O)NCCCC[C@H](NC(=O)CNC(=O)[C@H](CCCNC(=N)N)NC(=O)[C@@H](N)CO)C(=O)N[C@@H](CCCNC(=N)N)C(=O)N1CCC[C@H]1C(=O)N[C@H](C(=O)O)C(C)C)C(=O)O [GUB08250] (H-SRGK([AEEA-AEEA-γGlu-Stearoyl])RPV-OH; C-terminus assumed) | –
5 | 7 | 8 | – | CCCCCCCCCCCCCCCCCC(=O)N[C@@H](CCC(=O)NCCOCCOCC(=O)NCCOCCOCC(=O)NCCCC[C@H](NC(=O)CN)C(=O)N[C@@H](CCCNC(=N)N)C(=O)N1CCC[C@H]1C(=O)N[C@H](C(=O)NCC(=O)N[C@@H](CCCNC(=N)N)C(=O)N[C@@H](Cc1ccccc1)C(N)=O)C(C)C)C(=O)O [GUB08251] (H-GK([AEEA-AEEA-γGlu-Stearoyl])RPVGRF-NH2) | –
6 | 11 | 10 | – | CCCCCCCCCCCCCCCCCC(=O)N[C@@H](CCC(=O)NCCOCCOCC(=O)NCCOCCOCC(=O)NCCCC[C@H](N)C(=O)N[C@@H](CCCNC(=N)N)C(=O)N1CCC[C@H]1C(=O)N[C@H](C(=O)NCC(=O)N[C@@H](CCCNC(=N)N)C(=O)O)C(C)C)C(=O)O [GUB08252] (H-K([AEEA-AEEA-γGlu-Stearoyl])RPVGR-OH; C-terminus assumed) | –
7 | 7 | 1 | 34 | CCCCCCCCCCCCCCCCCC(=O)N[C@@H](CCC(=O)NCCOCCOCC(=O)NCCOCCOCC(=O)NCCCC[C@H](NC(=O)CNC(=O)[C@H](CCCNC(=N)N)NC(=O)[C@H](CO)NC(=O)[C@H](C)N)C(=O)N[C@@H](CCCNC(=N)N)C(=O)N1CCC[C@H]1C(=O)N[C@H](C(=O)NCC(=O)O)C(C)C)C(=O)O [GUB08247] (H-ASRGK([AEEA-AEEA-γGlu-Stearoyl])RPVG-OH; C-terminus assumed) | –
8 | 11 | 15 | – | CCCCCCCCCCCCCCCCCC(=O)N[C@@H](CCC(=O)NCCOCCOCC(=O)NCCOCCOCC(=O)NCCCC[C@H](N)C(=O)N[C@@H](CCCNC(=N)N)C(=O)N1CCC[C@H]1C(=O)N[C@H](C(=O)NCC(=O)O)C(C)C)C(=O)O [GUB08253] (H-K([AEEA-AEEA-γGlu-Stearoyl])RPVG-OH; C-terminus assumed) | –
9 | 9 | 7 | 18 | CCCCCCCCCCCCCCCCCC(=O)N[C@@H](CCC(=O)NCCOCCOCC(=O)NCCOCCOCC(=O)NCCCC[C@H](NC(=O)CNC(=O)[C@H](CCCNC(=N)N)NC(=O)[C@@H](N)CO)C(=O)N[C@@H](CCCNC(=N)N)C(=O)N1CCC[C@H]1C(=O)N[C@H](C(=O)NCC(=O)O)C(C)C)C(=O)O [GUB08249] (H-SRGK([AEEA-AEEA-γGlu-Stearoyl])RPVG-OH; C-terminus assumed) | –
10 | 5 | – | 11 | CCCCCCCCCCCCCCCCCC(=O)N[C@@H](CCC(=O)NCCOCCOCC(=O)NCCOCCOCC(=O)NCCCC[C@H](NC(=O)CNC(=O)[C@H](CCCNC(=N)N)NC(=O)[C@@H](N)CO)C(=O)N[C@@H](CCCNC(=N)N)C(=O)N1CCC[C@H]1C(=O)N[C@H](C(=O)NCC(=O)N[C@@H](CCCNC(=N)N)C(=O)N[C@@H](Cc1ccccc1)C(N)=O)C(C)C)C(=O)O [GUB08248] (H-SRGK([AEEA-AEEA-γGlu-Stearoyl])RPVGRF-NH2) | –
11 | – | – | – | CC[C@H](C)[C@H](NC(=O)CNC(=O)[C@H](CCCNC(=N)N)NC(=O)[C@H](CO)NC(=O)[C@H](C)NC(=O)[C@H](Cc1ccc(O)cc1)NC(=O)[C@H](Cc1c[nH]c2ccccc12)NC(=O)[C@H](C)NC(=O)[C@@H]1CCCN1C(=O)[C@H](CC(N)=O)NC(=O)[C@@H](NC(=O)[C@H](CC(=O)O)NC(=O)[C@@H]1CCCN1C(=O)[C@@H](NC(=O)[C@H](CCCNC(=N)N)NC(=O)[C@@H](NC(=O)[C@H](CCC(=O)O)NC(=O)[C@H](CCSC)NC(=O)[C@H](CO)NC(=O)[C@H](Cc1c[nH]cn1)NC(=O)[C@H](CCCNC(=N)N)NC(=O)[C@H](Cc1c[nH]cn1)NC(=O)[C@@H](NC(=O)[C@H](CCCNC(=N)N)NC(=O)[C@@H](N)CO)[C@@H](C)O)[C@@H](C)CC)[C@@H](C)O)[C@@H](C)CC)C(=O)N[C@@H](CCCNC(=N)N)C(=O)N1CCC[C@H]1C(=O)N[C@H](C(=O)NCC(=O)N[C@@H](CCCNC(=N)N)C(=O)N[C@@H](Cc1ccccc1)C(N)=O)C(C)C [PrRP31] | EC50 [1]: > 5000 nM
12 | – | – | – | CCCCCCCCCCCCCCCCCC(=O)N[C@@H](CCC(=O)NCCOCCOCC(=O)NCCOCCOCC(=O)NCCCC[C@H](NC(=O)CNC(=O)[C@H](CCCNC(=N)N)NC(=O)[C@H](CO)NC(=O)[C@H](C)NC(=O)[C@H](Cc1ccc(O)cc1)NC(=O)[C@H](Cc1c[nH]c2ccccc12)NC(=O)[C@H](C)NC(=O)[C@@H]1CCCN1C(=O)[C@H](CC(N)=O)NC(=O)[C@@H](NC(=O)[C@H](CC(=O)O)NC(=O)[C@@H]1CCCN1C(=O)[C@@H](NC(=O)[C@H](CCCNC(=N)N)NC(=O)[C@@H](NC(=O)[C@H](CCC(=O)O)NC(=O)[C@H](CCSC)NC(=O)[C@H](CO)NC(=O)[C@H](Cc1c[nH]cn1)NC(=O)[C@H](CCCNC(=N)N)NC(=O)[C@H](Cc1c[nH]cn1)NC(=O)[C@@H](NC(=O)[C@H](CCCNC(=N)N)NC(=O)[C@@H](N)CO)[C@@H](C)O)[C@@H](C)CC)[C@@H](C)O)[C@@H](C)CC)C(=O)N[C@@H](CCCNC(=N)N)C(=O)N1CCC[C@H]1C(=O)N[C@H](C(=O)NCC(=O)N[C@@H](CCCNC(=N)N)C(=O)N[C@@H](Cc1ccccc1)C(N)=O)C(C)C)C(=O)O [GUB03385] (H-SRTHRHSMEIRTPDINPAWYASRGK([AEEA-AEEA-γGlu-Stearoyl])RPVGRF-NH2) | time of degradation after subcutaneous administration ([3]; DIO mice, 1250 nmol/kg SC, plasma): < 30 min

Source: article PMC8807614 (Scientific Reports, 2022)
